The nature of this data set: Diffusion of infused low molecular weight contrast agents in NativeSkin and FlowSkin models (surface colour intensity). The class given is in vitro ADME. To be noted: infused at 0.5 mg/mL, first hours of infusion; FLOWSKIN (with hypodermis) compared with NATIVESKIN (without). On the procedure: In order to characterize diffusion during the first hours of infusion in the NativeSkin° and in the FlowSkin®model, two low molecular weight contrast agents (KI: potassium Iodide, […]) and V patent blur (E131, 1 kDa) at 0.5 mg/mL have been infused in both models.
The result was similar with V patent blue (E131). Accordingly, it seems that the hypoderm facilitate the diffusion of low molecular weight agent within the FLOWSKIN® model.

Results on one compound are retold here after patent US20230304996A1, “MICROFLUIDIC SYSTEM TO CONTROL PERFUSION, DIFFUSION AND COLLECTION OF MOLECULES OVER LONG PERIODS IN AN EX-VIVO SKIN MODEL” (GENOSKIN, priority 2020, published 2023).

Regarding `[I-].[K+]` [KI, potassium Iodide], the “color intensity visible at the surface of the FLOWSKIN model versus the NATIVESKIN model” value is on record as “growing faster”.
